Measurements as given in article PMC12693701, “Glucosinolate-Derived Metabolites from Barbarea vulgaris (Brassicaceae): Evaluation of Antimicrobial, Antioxidant, and Anti-Inflammatory Potentials” (Molecules, 2025).
≈ marks a conversion by molar mass, not a printed value. Values belong to the compound of their own block, whether it stands above or below them.

Columns and labels:
[1] = tested on: B. subtilis ATCC 6633; assay: Microdilution MIC/MMC with resazurin; format: cell-based, Bacillus subtilis; details: B. subtilis ATCC 6633, reference antibiotics/antimycotic; for MIC: Bacillus subtilis, ATCC6633, read-out: MIC
Experimental: (§1) The antimicrobial activity was evaluated against 15 microorganisms. This included 11 bacterial strains: four standard strains (Staphylococcus aureus ATCC 25923, Bacillus subtilis ATCC 6633, Bacillus pumilus NCTC 8241, and Escherichia coli ATCC 25922) and six clinical or environmental isolates (Staphylococcus aureus, Escherichia coli, Bacillus cereus, Proteus mirabilis, Salmonella enterica, and Klebsiella pneumoniae). One probiotic strain, Bifidobacterium animalis subsp. lactis was tested. In addition, four fungal strains, Candida albicans ATCC 10231, Trichoderma viride ATCC 13233, Aspergillus flavus ATCC 9170, and Fusarium solani ATCC 11712 were tested. The bacterial strains were kept in glycerol stock at −80 °C and the fungal strains in paraffin oil stock at 4 °C.
(§2) Bacterial and yeast suspensions were prepared using the direct colony method, as previously described by Andrews. The turbidity of the initial suspensions was adjusted to match the 0.5 McFarland standard using a densitometer (Biosan, Riga, Latvia), corresponding to approximately 10^8 colony-forming units (CFU)/mL for bacterial cells and 10^6 CFU/mL for yeast cells. Subsequently, 1:100 dilutions of the initial suspensions were prepared in sterile 0.85% saline. Fungal spore suspensions were obtained by gently harvesting spores from agar slopes containing mature mycelial growth. The collected spore suspensions were then diluted 1:1000 in sterile 0.85% saline prior to use.
(§3) Antimicrobial activity was evaluated by determining the minimum inhibitory concentration (MIC) and minimum microbicidal concentration (MMC) using the microdilution plate method with resazurin as an indicator [28]. In the 96-well plates, 100 μL of Mueller–Hinton broth (Torlak, Belgrade, Serbia) for bacterial testing and Sabouraud broth (Torlak, Belgrade, Serbia) for fungal testing were dispensed into each well. The compounds under investigation were initially dissolved in a 10% dimethyl sulfoxide (DMSO) solution, followed by dilution in sterile distilled water, resulting in a working compound solution containing 1% DMSO. A 100 μL aliquot of the stock solution of the tested compound was added to the first row, and twofold serial dilutions were then carried out using a multichannel pipette. The resulting concentration range was from 5 to 0.039 mg/mL. The inoculated microtiter plates were incubated at 37 °C for 24 h for bacteria, at 28 °C for 48 h for yeasts, and at 28 °C for 72 h for molds.
(§4) Each test also included growth control and sterility control. All tests were conducted in duplicate. MIC was defined as the lowest concentration of tested compounds that prevented resazurin color change from blue to pink. For molds, MIC values of the tested compound were determined as the lowest concentration that inhibited visible mycelia growth. MMC was determined by inoculation of the nutrient agar medium by plating […] of samples from wells, where no indicator color change was recorded. At the end of the incubation period, the lowest concentration with no growth (no colony) was defined as MMC.
(§5) Doxycycline, ampicillin and amphotericin B (- Sigma-Aldrich, St. Louis, MO, USA) and ketoconazole (Hemofarm A.D., Vršac, Serbia) were dissolved in a nutrient liquid medium. Doxycycline is a broad-spectrum antibiotic effective against both aerobic and anaerobic Gram-positive and Gram-negative bacteria. Ampicillin, a beta-lactam antibiotic, primarily targets Gram-positive bacteria but also some Gram-negative strains. Amphotericin B is an antifungal drug often used for serious systemic fungal infections and is one of the effective treatments for fungal infections caused by Aspergillus sp. Ketoconazole is an antifungal agent used to inhibit the growth of Candida species.

[2] = tested on: B. cereus; assay: Microdilution MIC/MMC with resazurin; format: cell-based, Bacillus cereus; details: B. cereus, reference antibiotics/antimycotic; for MIC: Bacillus cereus, read-out: MIC
Experimental: as §1, §2, §3, §4, §5

[3] = tested on: B. pumilus NCTC 8241; assay: Microdilution MIC/MMC with resazurin; format: cell-based, Bacillus pumilus; details: B. pumilus NCTC 8241, reference antibiotics/antimycotic
Experimental: as §1, §2, §3, §4, §5

[4] = tested on: B. animalis subsp. lactis; assay: Microdilution MIC/MMC with resazurin; format: cell-based, Bifidobacterium animalis subsp. lactis; details: B. animalis subsp. lactis, reference antibiotics/antimycotic; for MIC: Bifidobacterium animalis, read-out: MIC
Experimental: as §1, §2, §3, §4, §5

[5] = tested on: S. aureus ATCC 25923; assay: Microdilution MIC/MMC with resazurin; format: cell-based, Staphylococcus aureus; details: S. aureus ATCC 25923, reference antibiotics/antimycotic; for MIC: Staphylococcus aureus, ATCC25923, read-out: MIC
Experimental: as §1, §2, §3, §4, §5

[6] = tested on: S. aureus; assay: Microdilution MIC/MMC with resazurin; format: cell-based, Staphylococcus aureus; details: S. aureus isolate, reference antibiotics/antimycotic; for MIC: Staphylococcus aureus, read-out: MIC
Experimental: as §1, §2, §3, §4, §5

[7] = tested on: E. coli ATCC 25922; assay: Microdilution MIC/MMC with resazurin; format: cell-based, Escherichia coli; details: E. coli ATCC 25922, reference antibiotics/antimycotic; for MIC: Escherichia coli, ATCC25922, read-out: MIC
Experimental: as §1, §2, §3, §4, §5

[8] = tested on: E. coli; assay: Microdilution MIC/MMC with resazurin; format: cell-based, Escherichia coli; details: E. coli isolate, reference antibiotics/antimycotic; for MIC: Escherichia coli, read-out: MIC
Experimental: as §1, §2, §3, §4, §5

[9] = tested on: P. mirabilis; assay: Microdilution MIC/MMC with resazurin; format: cell-based, Proteus mirabilis; details: P. mirabilis, reference antibiotics/antimycotic; for MIC: Proteus mirabilis, read-out: MIC
Experimental: as §1, §2, §3, §4, §5

[10] = tested on: S. enterica; assay: Microdilution MIC/MMC with resazurin; format: cell-based, Salmonella enterica; details: reference antibiotics/antimycotic; for MIC: Salmonella enterica
Experimental: as §1, §2, §3, §4, §5

[11] = tested on: K. pneumoniae; assay: Microdilution MIC/MMC with resazurin; format: cell-based, Klebsiella pneumoniae; details: K. pneumoniae, reference antibiotics/antimycotic; for MIC: Klebsiella pneumoniae, read-out: MIC
Experimental: as §1, §2, §3, §4, §5

[12] = tested on: C. albicans ATCC 10231; assay: Microdilution MIC/MMC with resazurin; format: cell-based, Candida albicans; details: C. albicans ATCC 10231, reference antibiotics/antimycotic; for MIC: Candida albicans, ATCC10231, read-out: MIC
Experimental: as §1, §2, §3, §4, §5

[13] = tested on: T. viride ATCC 13233; assay: Microdilution MIC/MMC; format: cell-based, Trichoderma viride; details: T. viride ATCC 13233, reference antibiotics/antimycotic; for MIC: Trichoderma viride, ATCC13233, read-out: MIC
Experimental: as §1, §2, §3, §4, §5

[14] = tested on: A. flavus ATCC 9170; assay: Microdilution MIC/MMC; format: cell-based, Aspergillus flavus; details: A. flavus ATCC 9170, reference antibiotics/antimycotic; for MIC: Aspergillus flavus, ATCC9170, read-out: MIC
Experimental: as §1, §2, §3, §4, §5

[15] = tested on: F. solani ATCC 11712; assay: Microdilution MIC/MMC; format: cell-based, Fusarium solani; details: F. solani ATCC 11712, reference antibiotics/antimycotic
Experimental: as §1, §2, §3, §4, §5

[16] = ABTS radical scavenging assay; details: mean ± SD
Experimental: The ABTS radical cation solution was prepared following the previously described protocol. Different concentrations of the analyzed samples were prepared in DMSO. The test samples were prepared following the specified procedure: 20 µL of sample was combined with 980 µL of methanol, followed by the addition of 1000 µL of ABTS solution. Absorbance was measured at 734 nm. All measurements were performed in triplicate.

Structure (SMILES): CC1(C)S[C@@H]2[C@H](NC(=O)[C@H](N)c3ccccc3)C(=O)N2[C@H]1C(=O)O [Ampicillin, reference compound]
MMC [1]: 4 µg/mL
MIC [1]: 3 µg/mL (≈ 8.59 µM)
MMC [2]: 6 µg/mL
MIC [2]: 4 µg/mL (≈ 11.4 µM)
MMC [3]: 12 µg/mL
MIC ([3]; Bacillus pumilus, NCTC8241, read-out: MIC): 8 µg/mL (≈ 22.9 µM)
MMC [4]: 0.12 µg/mL
MIC [4]: < 0.06 µg/mL
MMC [5]: 0.75 µg/mL
MIC [5]: 0.25 µg/mL (≈ 0.715 µM)
MMC [6]: <0.06 µg/mL
MIC [6]: < 0.06 µg/mL
MMC [7]: 0.5 µg/mL
MIC [7]: 0.37 µg/mL (≈ 1.06 µM)
MMC [8]: 2.1 µg/mL
MIC [8]: 1.2 µg/mL (≈ 3.43 µM)
MMC [9]: >128 µg/mL
MIC [9]: > 128 µg/mL
MIC [10]: 1 µg/mL (≈ 2.86 µM)
MMC [10]: 1 µg/mL
MMC [11]: >128 µg/mL
MIC [11]: > 128 µg/mL

MIC [12]: 1.96 µg/mL (≈ 3.69 µM)
MIC [13]: 62.5 µg/mL (≈ 118 µM)
MIC [14]: < 0.49 µg/mL
MIC ([15]; Fusarium solani, ATCC11712, read-out: MIC): 0.08 µg/mL (≈ 0.151 µM)
Structure (SMILES): CC(=O)N1CCN(c2ccc(OCC3COC(Cn4ccnc4)(c4ccc(Cl)cc4Cl)O3)cc2)CC1 (stereo not shown) [Ketoconazole, reference compound]
MMC [12]: 1.96 µg/mL
MMC [13]: 125 µg/mL
MMC [14]: 1.96 µg/mL
MMC [15]: 0.156 µg/mL

MIC [12]: < 0.098 µg/mL
MIC [13]: 0.78 µg/mL (≈ 0.844 µM)
MIC [14]: 0.39 µg/mL (≈ 0.422 µM)
Structure (SMILES): C[C@@H]1[C@H](O)[C@@H](C)/C=C/C=C/C=C/C=C/C=C/C=C/C=C/[C@H](O[C@@H]2O[C@H](C)[C@@H](O)[C@H](N)[C@@H]2O)C[C@@H]2O[C@](O)(C[C@@H](O)C[C@@H](O)[C@H](O)CC[C@@H](O)C[C@@H](O)CC(=O)O[C@H]1C)C[C@H](O)[C@H]2C(=O)O [Amphotericin B, reference compound]
MMC [12]: <0.098 µg/mL
MMC [13]: 1.56 µg/mL
MMC [14]: 0.78 µg/mL

Structure (SMILES): C[C@H]1c2cccc(O)c2C(=O)C2=C(O)[C@]3(O)C(=O)C(C(N)=O)=C(O)[C@@H](N(C)C)[C@@H]3[C@@H](O)[C@@H]21 [Doxycycline, reference compound]
MMC [1]: 31.25 µg/mL
MIC [1]: 1.95 µg/mL (≈ 4.39 µM)
MMC [2]: 7.81 µg/mL
MIC [2]: 0.977 µg/mL (≈ 2.2 µM)
MMC [4]: 8 µg/mL
MIC [4]: 4 µg/mL (≈ 9 µM)
MMC [5]: 3.75 µg/mL
MIC [5]: 0.224 µg/mL (≈ 0.504 µM)
MMC [6]: 7.81 µg/mL
MIC [6]: 0.45 µg/mL (≈ 1.01 µM)
MMC [7]: 31.25 µg/mL
MIC [7]: 15.6 µg/mL (≈ 35.2 µM)
MMC [8]: 62.5 µg/mL
MIC [8]: 15.6 µg/mL (≈ 35.2 µM)
MMC [9]: 62.5 µg/mL
MIC [9]: 15.6 µg/mL (≈ 35.2 µM)
MIC [10]: 15.6 µg/mL (≈ 35.2 µM)
MMC [11]: 32 µg/mL
MIC [11]: 2 µg/mL (≈ 4.5 µM)

Structure (SMILES): Cc1c(C)c2c(c(C)c1O)CCC(C)(C(=O)O)O2 (stereo not shown) [Trolox, reference compound]
ABTS Scavenging Ability ([16]; 25 µM): 97.5 ± 0.2%
ABTS Scavenging Ability ([16]; 50 µM): 99.3 ± 0.1%
ABTS Scavenging Ability ([16]; 100 µM): 99.5 ± 0.3%
